# Patent publication US8039501B2, “Synephrine derivatives useful as anti-inflammatory agents” (Universiteit Gent, priority 2005, dated 2011)
# Experiments:
# MG63b = assay: Q-PCR gene expression in osteosarcoma cell-line MG63b; type: cell-based, human; details: 10 μM
# Experimental: (§1) CpdA was synthesized as described previously. […] They were sacrificed and livers were isolated. […] Gene expression of HPRT was used for normalization. […] Gene expression of HPRT was used for normalization. […] Gene expression of HPRT was used for normalization. Statistical significance was determined by one way anova. […] Gene expression of HPRT was used for normalization. […] Gene expression of HPRT was used for normalization. Statistical significance was determined by one way anova. […] Statistical significance was determined with a Kruskal-Wallis test.
# [1] = tested on: FLS cells (fibroblast-like synoviocytes); assay: Q-PCR/ELISA gene expression in primary FLS of RA patients; type: cell-based, human
# Experimental: as §1
# Western blot analysis was performed on total protein extracts with an anti-GR(H-300) antibody. The detection of ERK was used as a loading control. After 8 days of treatment liver samples were taken from the PBS, DEX (20 μg) or CpdA (300 μg) treated DBA/1 mice (FIG. 22B). Q-PCR was performed for the detection of GR in the different samples. Statistical significance was determined with a Mann-Whitney Test. FLS were pre-treated with solvent, DEX (1 μM) or CpdA (10 μM) for 1 hour (set-up 1) or 24 hours (set-up 2), as indicated in the figures. Afterwards, TNF (2000 units/ml) was added for 6 h. Western blot analysis was performed on total extracts with an anti-GR(H-300) antibody (FIG. 19A). Detection of ERK was used as a loading control. The Human Inflammation Array was incubated with medium of cultured FLS and developed following the manufacturer's instruction (FIG. 19B). Total RNA was isolated from the induced FLS and subjected to reverse transcriptase PCR. […] Gene expression of HPRT was used for normalization. Statistical significance was determined by one way anova. […] Since it has been proposed that the cellular sensitivity to GC is directly proportional to the receptor concentration, the mechanism of homologous down-regulation appears to drastically affect the cellular sensitivity of primary human RA-FLS to GC therapy. […] Such an effect can not be observed with CpdA. […] Therefore, it is not surprising that some patients who develop resistance to the therapeutic effects of GC, still display the unwanted effects associated with prolonged GC treatment. […] All publications and patent applications mentioned in this specification are herein incorporated by reference to the same extent as if each independent publication or patent application was specifically and individually indicated to be incorporated by reference. Other embodiments are within the scope of the claims.
# NFκB = assay: EMSA of NFkB DNA binding in MCF7 cells; type: cell-based, human; details: pre-treated 10, 1, 0.1, 0.01, 0.001 μM for two hours, TNF 2000 IU/ml 30 min, FIG. 7A
# Experimental: (§2) For the EMSA, the MCF7 cells were pre-treated with varying concentrations of CpdA (10, 1, 0.1, 0.01, and 0.001 μM) and DEX (0.1 μM) for two hours and subsequently TNF-induced or non-TNF-induced during 30 min at 2000 IU/ml. After the induction period, nuclear extracts were examined in EMSA assays. Cells were washed with ice-cold PBS, scraped off, and pelleted in 15 ml of PBS by centrifugation for 5 min at 2600 rpm at 4° C. and lysed for 30 minutes at 4° C. in Totex buffer (20 mM HEPES (pH 7.9), 350 mM NaCl, 1 mM MgCl, 0.5 mM EDTA, 0.1 mM EGTA, 5 mM DTT, 20% glycerol, 1% NP-40, 0.1% PMSF, 1% aprotinin (4 mg/ml leupeptin). Supernatants from a 4000-rpm 10-min centrifugation were collected, aliquoted and stored at −20° C. until further use. Radiolabelled oligonucleotides that correspond to a consensus κB DNA-binding element of the IL-6 promoter, and of activating protein 1 (AP-1) DNA target-were used for appropriate EMSA's. These oligonucleotides of about 25 nucleotides comprise centrally the transcription factor binding motif. […] The samples were analyzed by electrophoresis on 6% native polyacrylamide gels. […] Visualization and quantitation of radioactive signals was carried out by a Phosphorlmager and scanned using a bioimaging analyzer (Personal Molecular Imager® FX Bio-Rad). […]
# AP1 = assay: EMSA of AP1 DNA binding in MCF7 cells; type: cell-based, human; details: FIG. 7B
# Experimental: as §2
# MCF7 breast cancer cells = details: 10^−5 M
# Experimental: In further experiments, nylon arrayfilter hybridization experiments were performed. cDNA array analyses were carried out according to the instructions of the manufacturer (SuperArray Simplicity GEArray™ KIT) on the cDNA arrays cancer pathway finder and stress and toxicity array. Total RNA, obtained by the protocol as described herein above, was used as a template for [α−^33P]-cDNA probe synthesis using the following steps:
# A second array hybridization experiment was performed on Human Stress and Toxicity Pathway Finder GEarray Q series. The same protocol was followed as for the array hybridization experiment on the Human Cancer Pathway Finder described herein above.
smiles,measurement,setting,value
"CNCC(Cl)c1ccc(OC(C)=O)cc1.Cl (centres unmarked) [CpdA, 2-(4-acetoxyphenyl)-2-chloro-N-methyl-ethylammonium chloride]",Expression of OPG,"MG63b; 24 hours, FIG. 14B",does not down-regulate the expression of OPG
same,Expression of cathepsin K,"MG63b; 24 hours, FIG. 14B",does not stimulate the expression of cathepsin K
same,Expression of pro-inflammatory mediators (anti-inflammatory effect),"MG63b; TNF 2000 U/ml 6 hours, FIG. 14A",anti-inflammatory effect
same,"Repression of TNF-induced MCP-1, IL-8 and IL-6 after prolonged treatment (set-up 2)","[1]; 10 μM pre-treated 24 hours, TNF 2000 units/ml 6 h, FIG. 19","still able to repress the TNF-induced expression of MCP-1, IL-8 and IL-6"
same,RANKL/OPG ratio,"[1]; 10 μM, 24 hours",does not alter the RANKL/OPG ratio
same,Expression of cathepsin K,"[1]; 10 μM, 24 hours, FIG. 18",does not stimulate the expression of cathepsin K
same,Expression of osteoclast differentiation markers M-CSF and RANKL,"[1]; 10 μM, 24 hours, FIG. 18, RANKL solvent versus CpdA p>0.05",does not stimulate the expression
same,Expression of OPG,"[1]; 10 μM, 24 hours, FIG. 18, solvent versus CpdA p>0.05",does not down-regulate the expression of OPG
same,Transactivation function of GR (GRE-driven PCOLCE2 and GS expression),"[1]; 10 μM, FIG. 20",does not evoke the transactivation function of GR
same,Expression of pro-inflammatory mediators (anti-inflammatory effect),"[1]; 10 μM, TNF 2000 U/ml 6 hours, FIG. 17",anti-inflammatory effect
same,NFkB available for DNA binding (EMSA),NFκB,significant impairment of NFkB available for DNA binding
same,DNA-binding of transcription factor AP1 (EMSA),AP1,not affected
same,"Gene response of CRYAB, DNAJA1, pcna, mdm2",MCF7 breast cancer cells,increased gene response
same,"Levels of HSPA1A, HSPA1B, HSPA4 (=hsp70), CSF2, SCYA4 (MIP1B), ANXA5, casp10, casp8, ERCC5, TNFSF6 (FasL)",MCF7 breast cancer cells,increases levels
